# Test results taken from publication PMC11078746 (Nature, 2024).
# Where “and” joins values, the source holds several entries; their conditions need not be identical. Equal values may be shown once.
# Legend:
# [1] = Mouse body weight, SW48 xenograft study with HRO761; format: in vivo; design: Body weight change, individual animals / Body weight change, group mean: unit not given here; details: for Body weight change, group mean / Body weight change, individual animals: SW48 xenograft-bearing mice
# Protocol: All animal studies were conducted in accordance with ethics and procedures covered by permit BS-2275 and BS-1975 issued by the Kantonales Veterinäramt Basel-Stadt and in strict adherence to guidelines of the Eidgenössisches Tierschutzgesetz and the Eidgenössische Tierschutzverordnung, Switzerland. All animal studies were approved by the internal ethics committee. All animals had access to food and water ad libitum and were identified with transponders. They were housed in a specific-pathogen-free facility in IVC racks under a 12 h–12 h light–dark cycle. To establish cell-line-derived xenograft models, 6–7-week-old female athymic nude (Crl:NU(NCr)-Foxn1^nu) or SCID-BEIGE (CB17.Cg-PrkdcscidLystbg-J/Crl) mice from Charles River were engrafted subcutaneously with 5 million tumour cells in HBSS (H6648, Sigma-Aldrich). For SNU-407, Lovo, IM95, RL95.2, Ishikawa and IGROV-1, the cells were concentrated in 50% Matrigel (354234, Corning). Patient-derived xenografts were induced and expanded by transplantation as previously described. […] For the efficacy experiment, mice were randomized into groups (n = 5–6) for a mean tumour size of 100–150 mm^3. […] Blood samples were collected on day 7 and 91. […] Tumour responses are reported with the measures of tumour volumes from the treatment start. […] Animals were randomized (n = 3) and tumour samples were collected at 0, 1, 4, 8 and 24 h on the first day and then collected 4 h after the last treatment on day 3, 8, 10, 14 (including a 24 h timepoint), 17 and 21. Tumours were excised, weighed, either frozen in liquid nitrogen and cryogenic dry pulverized with the CryoPrep system (model CP-02, Covaris) or processed to FFPE after fixation. […] On day 12, blood samples were collected for PK analysis. On the last day (3 h after the last treatment), tumours were excised, weighed, frozen in liquid nitrogen and cryogenic dry pulverized for PD analysis.
# [2] = test system: SNU407; experiment: CFA 10-14 day clonogenic assay; format: cell-based; details: Homo sapiens, SNU-407
# [3] = HRO761 120mg/kg, day 0 post 1st dose
structure (smiles),measurement,setting,value
CCc1c(N2CCN(C(=O)c3ncnc(C)c3O)CC2)c(=O)n2nc(C3=CCOCC3)nc2n1CC(=O)Nc1ccc(C(F)(F)F)cc1Cl [HRO761],Mean DBW,"[1]; HRO761 60mg/kg, day 21 post 1st dose",1.03%
same,Mean DBW,"[1]; HRO761 60mg/kg, day 24 post 1st dose",2.43%
same,Mean DBW,"[1]; HRO761 60mg/kg, day 28 post 1st dose",5.12%
same,Mean DBW,"[1]; HRO761 60mg/kg, day 31 post 1st dose",5.38%
same,Mean DBW,"[1]; HRO761 60mg/kg, day 35 post 1st dose",4.36%
same,Mean DBW,"[1]; HRO761 60mg/kg, day 38 post 1st dose",2.35%
same,Mean DBW,"[1]; HRO761 60mg/kg, day 42 post 1st dose",3.45%
same,Mean DBW,"[1]; HRO761 60mg/kg, day 45 post 1st dose",2.45%
same,Mean DBW,"[1]; HRO761 60mg/kg, day 49 post 1st dose",3.51%
same,Mean DBW,"[1]; HRO761 60mg/kg, day 52 post 1st dose",2.35%
same,Mean DBW,"[1]; HRO761 60mg/kg, day 56 post 1st dose",2.93%
same,Mean DBW,"[1]; HRO761 60mg/kg, day 59 post 1st dose",4.86%
same,Mean DBW,"[1]; HRO761 60mg/kg, day 63 post 1st dose",4.98%
same,Mean DBW,"[1]; HRO761 60mg/kg, day 66 post 1st dose",5.96%
same,Mean DBW,"[1]; HRO761 60mg/kg, day 70 post 1st dose",5.36%
same,Mean DBW,"[1]; HRO761 60mg/kg, day 73 post 1st dose",5.45%
same,Mean DBW,"[1]; HRO761 60mg/kg, day 76 post 1st dose",8.05%
same,Mean DBW,"[1]; HRO761 60mg/kg, day 79 post 1st dose",6.02%
same,Mean DBW,"[1]; HRO761 60mg/kg, day 83 post 1st dose",6.63%
same,Mean DBW,"[1]; HRO761 60mg/kg, day 86 post 1st dose",7.71%
same,"Delta BW change, individual mouse",[1]; [3],0%
same,Mean DBW,[1]; [3],0.00%
same,Mean DBW,"[1]; HRO761 120mg/kg, day 3 post 1st dose",-2.05%
same,"Delta BW change, individual mouse","[1]; HRO761 120mg/kg, day 3 post 1st dose, 120 mg/kg",-1.24% and 0% and -5.24% and -5.96% and 2.18%
same,Mean DBW,"[1]; HRO761 120mg/kg, day 7 post 1st dose",0.64%
same,"Delta BW change, individual mouse","[1]; HRO761 120mg/kg, day 7 post 1st dose, 120 mg/kg",0% (2×) and 3.8% and -3.23% and 2.62%
same,Mean DBW,"[1]; HRO761 120mg/kg, day 10 post 1st dose",0.034%
same,"Delta BW change, individual mouse","[1]; HRO761 120mg/kg, day 10 post 1st dose, 120 mg/kg",2.07% and 3.8% and -2.42% and -4.59% and 1.31%
same,Mean DBW,"[1]; HRO761 120mg/kg, day 14 post 1st dose",1.43%
same,"Delta BW change, individual mouse","[1]; HRO761 120mg/kg, day 14 post 1st dose, 120 mg/kg",4.15% and 4.56% and -2.82% and -0.92% and 2.18%
same,Mean DBW,"[1]; HRO761 120mg/kg, day 17 post 1st dose",1.14%
same,Mean DBW,"[1]; HRO761 120mg/kg, day 21 post 1st dose",5.29%
same,Mean DBW,"[1]; HRO761 120mg/kg, day 24 post 1st dose",6.66%
same,Mean DBW,"[1]; HRO761 120mg/kg, day 28 post 1st dose",5.89%
same,Mean DBW,"[1]; HRO761 120mg/kg, day 31 post 1st dose",6.52%
same,Mean DBW,"[1]; HRO761 120mg/kg, day 35 post 1st dose",7.34%
same,Mean DBW,"[1]; HRO761 120mg/kg, day 38 post 1st dose",4.89%
same,Mean DBW,"[1]; HRO761 120mg/kg, day 42 post 1st dose",6.61%
same,Mean DBW,"[1]; HRO761 120mg/kg, day 45 post 1st dose",7.02%
same,Mean DBW,"[1]; HRO761 120mg/kg, day 49 post 1st dose",8.54%
same,Mean DBW,"[1]; HRO761 120mg/kg, day 52 post 1st dose",5.69%
same,Mean DBW,"[1]; HRO761 120mg/kg, day 56 post 1st dose",7.31%
same,Mean DBW,"[1]; HRO761 120mg/kg, day 59 post 1st dose",8.08%
same,Mean DBW,"[1]; HRO761 120mg/kg, day 63 post 1st dose",9.90%
same,Mean DBW,"[1]; HRO761 120mg/kg, day 66 post 1st dose",9.60%
same,Mean DBW,"[1]; HRO761 120mg/kg, day 70 post 1st dose",9.57%
same,Mean DBW,"[1]; HRO761 120mg/kg, day 73 post 1st dose",7.95%
same,Mean DBW,"[1]; HRO761 120mg/kg, day 76 post 1st dose",11.43%
same,Mean DBW,"[1]; HRO761 120mg/kg, day 79 post 1st dose",9.25%
same,Mean DBW,"[1]; HRO761 120mg/kg, day 83 post 1st dose",10.23%
same,Mean DBW,"[1]; HRO761 120mg/kg, day 86 post 1st dose",9.35%
same,"Body weight change, group mean","[1]; HRO761 40mg/kg, day 90 post 1st dose",13.42
same,"Body weight change, individual animals","[1]; HRO761 40mg/kg, day 90 post 1st dose, 40 mg/kg",12.73 and 18.18 and 7.58 and 10.23 and 18.39
same,"Body weight change, group mean","[1]; HRO761 40mg/kg, day 92 post 1st dose",10.60
same,"Body weight change, individual animals","[1]; HRO761 40mg/kg, day 92 post 1st dose, 40 mg/kg",10.45 and 10.82 and 5.05 and 12.5 and 14.18
same,"Body weight change, group mean","[1]; HRO761 60mg/kg, day 90 post 1st dose",7.89
same,"Body weight change, individual animals","[1]; HRO761 60mg/kg, day 90 post 1st dose, 60 mg/kg",7.66 and 9.39 and 10.88 and 1.67 and 9.83
same,"Body weight change, group mean","[1]; HRO761 60mg/kg, day 92 post 1st dose",5.46
same,"Body weight change, individual animals","[1]; HRO761 60mg/kg, day 92 post 1st dose, 60 mg/kg",5.11 and 6.53 and 6.69 and 0.42 and 8.55
same,"Body weight change, group mean","[1]; HRO761 120mg/kg, day 90 post 1st dose",10.59
same,"Body weight change, individual animals","[1]; HRO761 120mg/kg, day 90 post 1st dose, 120 mg/kg",9.96 and 14.07 and 7.66 and 5.96 and 15.28
same,"Body weight change, group mean","[1]; HRO761 120mg/kg, day 92 post 1st dose",7.50
same,"Body weight change, individual animals","[1]; HRO761 120mg/kg, day 92 post 1st dose, 120 mg/kg",5.81 and 9.13 and 4.84 and 5.5 and 12.23
same,toxicity inferred from animal weight,[1]; doses up to 120 mg per kg,did not cause toxicity
same,GI50,[2],25 nM
